# Data taken from patent US10336746B1, “RAD51 inhibitors” (Cyteir Therapeutics, Inc., priority 2017, dated 2019).
# Where two headings read alike, the source gives them in different places.
# Tests used:
# [1] = test system: Daudi cell line (AID positive); assay: Primary screening cell killing assay, Daudi cell line (AID positive); format: cell-based; details: Homo sapiens, 168 h, cell death on Day 7, Cell-Titer Glo
# Method in brief: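 AID-positive Daudi cells, 1250 per well, were exposed to serially diluted compounds for 7 days at 37° C. Viability read by CellTiter-Glo luminescence; percent cell death and EC50 derived against untreated wells after media-blank subtraction.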
# [2] = Bi-directional Caco-2 permeability; format: in vitro ADME; details: human; for efflux ratio at 90 min: Caco-2, read-out: BA/AB Ratio; for Papp A→B at 90 min: Caco-2, apical to basolateral, read-out: AB Papp (cm/sec × 10^6); for Papp A→B at 90 min / Papp B→A at 90 min: 37 C, up to 90 minutes; for Papp B→A at 90 min: Caco-2, basolateral to apical, read-out: BA Papp (cm/sec × 10^6)
# Protocol: Bi-directional Caco-2 permeability was assayed. Caco-2 cells were seeded onto permeable polycarbonate supports and allowed to differentiate for about 3 weeks prior to being used in the assays. The cells were then exposed to the compounds from either the apical or basolateral sides and incubated at 37 C for up to 90 minutes under light agitation. Compound transport was then measured using LC/MS/MS analysis at 30, 60, and 90 minutes.
# [3] = test system: WI-38 cells (AID negative); assay: Primary screening cell killing assay repeated in WI-38 cells (AID negative); format: cell-based; details: Homo sapiens, 168 h, cell death on Day 7, Cell-Titer Glo
# Protocol: Primary screening was a phenotypic screen that utilized the synthetic lethal interaction between AID and RAD51 to identify compounds that were both potent and on target. AID expressing cells are dependent upon RAD51 for survival; inhibiting RAD51 in AID positive cells results in a cytotoxic effect.
# Percent cell death and EC50 values were calculated by comparing the cell viability of the compound treated wells to the non-treated wells. Normalized RLU values were obtained by subtracting the media well values from each of the wells in the same column, and then dividing that value by the DMSO treated cells values. The percent kill was then calculated by subtracting the normalized RLU value from 1 and multiplying by 100. The average normalized percent kill value and standard error of the mean was then calculated. The kill values were then inputted into Prism with the corresponding standard errors. In Prism a non-linear regression line was plotted with the data points using a semi-log scale, and the EC50 value was calculated.
# [4] = Caco-2, Caco-2, AB direction, read-out: AB Recovery %
# [5] = Caco-2, Caco-2, BA direction, read-out: BA Recovery %
"recovery at 90 min [2, 4] [%]","recovery at 90 min [2, 5] [%]",efflux ratio at 90 min [2],Papp A→B at 90 min [2] [×10⁻⁶ cm/s],Papp B→A at 90 min [2] [×10⁻⁶ cm/s],SMILES,EC50 [1] [nM],EC50 [3] [nM]
79.7,95.9,12.5,2.2,27.4,"CC(C)OC(=O)N[C@@H]1CC[C@@H](c2ncc(-c3ccc(NC(=O)NCc4ccccc4)cc3S(=O)(=O)NC(C)(C)C)s2)NC1 [Ex. 64, isopropyl ((3R,6S)-6-(5-(4-(3-benzylureido)-2-(N-(tert-butyl)sulfamoyl)phenyl)thiazol-2-yl)piperidin-3-yl)carbamate]",≤ 100,> 1000
47.2,81.9,0.8,2.8,2.1,"CC(C)OC(=O)Nc1ccc(-c2cnc(C34CCC(NC(=O)OC(C)C)(CC3)CC4)s2)c(S(=O)(=O)NC(C)(C)C)c1 [Ex. 17, isopropyl N-[3-(tert-butylsulfamoyl)-4-[2-[4-(isopropoxycarbonylamino)-1-bicyclo[2.2.2]octanyl]thiazol-5-yl]phenyl]carbamate]",100 to 1000,> 1000
92,107,0.7,0.7,0.5,"CC(C)OC(=O)N[C@H]1CC[C@H](c2ncc(-c3ccc(NC(=O)NCc4cccc(F)c4)cc3S(=O)(=O)NC(C)(C)C)s2)CC1 [Ex. 27, isopropyl ((1r,4r)-4-(5-(2-(N-(tert-butyl)sulfamoyl)-4-(3-(3-fluorobenzyl)ureido)phenyl)thiazol-2-yl)cyclohexyl)carbamate]",≤ 100,> 1000
64.1,91.7,1.5,7.4,10.9,"C[C@@H](NC(=O)Nc1ccc(-c2cnc(C3CCC(NC(=O)OC4COC4)CC3)s2)c(S(=O)(=O)NC(C)(C)C)c1)c1ccccc1 (stereo partly drawn) [Ex. 52, oxetan-3-yl ((1R,4r)-4-(5-(2-(N-(tert-butyl)sulfamoyl)-4-(3-((R)-1-phenylethyl)ureido)phenyl)thiazol-2-yl)cyclohexyl)carbamate]",≤ 100,> 1000
87.7,98.1,14.6,2,29.1,"CC(C)(C)NS(=O)(=O)c1cc(NC(=O)NCc2ccccn2)ccc1-c1cnc(C2CCC(NC(=O)OC3COC3)CC2)s1 (centres unmarked) [Ex. 50, oxetan-3-yl ((1r,4r)-4-(5-(2-(N-(tert-butyl)sulfamoyl)-4-(3-(pyridin-2-ylmethyl)ureido)phenyl)thiazol-2-yl)cyclohexyl)carbamate]",≤ 100,> 1000
63.1,90.9,1,9.3,9.7,"CC(C)(C)NS(=O)(=O)c1cc(NC(=O)NCc2ccccc2F)ccc1-c1cnc(C2CCC(NC(=O)OC3COC3)CC2)s1 (centres unmarked) [Ex. 53, oxetan-3-yl ((1r,4r)-4-(5-(2-(N-(tert-butyl)sulfamoyl)-4-(3-(2-fluorobenzyl)ureido)phenyl)thiazol-2-yl)cyclohexyl)carbamate]",≤ 100,> 1000
65,85.7,1.1,9.9,10.5,"C[C@H](NC(=O)Nc1ccc(-c2cnc(C3CCC(NC(=O)OC4COC4)CC3)s2)c(S(=O)(=O)NC(C)(C)C)c1)c1ccccc1 (stereo partly drawn) [Ex. 51, oxetan-3-yl ((1S,4r)-4-(5-(2-(N-(tert-butyl)sulfamoyl)-4-(3-((S)-1-phenylethyl)ureido)phenyl)thiazol-2-yl)cyclohexyl)carbamate]",≤ 100,> 1000
51.2,84.3,1.2,11.6,13.5,CC(C)OC(=O)Nc1ccc(-c2cnc([C@H]3CC[C@H](NC(=O)OC(C)C)CO3)s2)c(S(=O)(=O)NC(C)(C)C)c1 [Ex. 60B],100 to 1000,> 1000
65.2,83.8,1.1,6.5,7,"C[C@H](NC(=O)Nc1ccc(-c2cnc(C3CCC(NC(=O)OC4COC4)CC3)s2)c(S(=O)(=O)NC(C)(C)C)c1)c1ccccc1F (stereo partly drawn) [Ex. 55, oxetan-3-yl ((1S,4r)-4-(5-(2-(N-(tert-butyl)sulfamoyl)-4-(3-((S)-1-(2-fluorophenyl)ethyl)ureido)phenyl)thiazol-2-yl)cyclohexyl)carbamate]",≤ 100,> 1000
59.9,87.2,1.3,1.2,1.5,"CC(C)(C)NS(=O)(=O)c1cc(NC(=O)NCc2ccccc2)ccc1-c1cnc([C@H]2CC[C@H](NC(=O)OC(C)(C)C)CC2)s1 [Ex. 10, trans-tert-butyl N-[4-[5-[4-(benzylcarbamoylamino)-2-(tert-butylsulfamoyl)phenyl]thiazol-2-yl]cyclohexyl]carbamate]",≤ 100,> 1000
61.9,86.8,2.7,1.3,3.5,"CC(C)OC(=O)N[C@H]1CC[C@H](c2nc(F)c(-c3ccc(NC(=O)NCc4ccccc4)cc3S(=O)(=O)NC(C)(C)C)s2)CC1 [Ex. 57, trans-isopropyl N-[4-[5-[4-(benzylcarbamoylamino)-2-(tert-butylsulfamoyl)phenyl]-4-fluoro-thiazol-2-yl]cyclohexyl]carbamate]",≤ 100,> 1000
73.3,82.3,1.3,17.9,22.9,"CC(C)OC(=O)NC1CCC(c2ncc(-c3ccc(NC(=O)OC4COC4)cc3S(=O)(=O)NC(C)(C)C)s2)CC1 (centres unmarked) [Ex. 38, isopropyl ((1r,4r)-4-(5-(2-(N-(tert-butyl)sulfamoyl)-4-(((oxetan-3-yloxy)carbonyl)amino)phenyl)thiazol-2-yl)cyclohexyl)carbamate]",≤ 100,> 1000
55.6,85.5,3.1,3.1,9.6,CC(C)OC(=O)N[C@@H]1CC[C@@H](c2ncc(-c3ccc(NC(=O)NCc4ccccc4)cc3S(=O)(=O)NC(C)(C)C)s2)OC1 [Ex. 59A],100 to 1000,> 1000
79.8,116,1.4,11.5,15.7,"CC(C)OC(=O)N[C@H]1CC[C@H](c2ncc(-c3ccc(NC(=O)N[C@H](C)c4ccccn4)cc3S(=O)(=O)NC(C)(C)C)s2)CC1 [Ex. 30, isopropyl ((1R,4r)-4-(5-(2-(N-(tert-butyl)sulfamoyl)-4-(3-((R)-1-(pyridin-2-yl)ethyl)ureido)phenyl)thiazol-2-yl)cyclohexyl)carbamate]",≤ 100,> 1000
55.3,86,0.9,12,11.2,CC(C)OC(=O)Nc1ccc(-c2cnc([C@@H]3CC[C@@H](NC(=O)OC(C)C)CO3)s2)c(S(=O)(=O)NC(C)(C)C)c1 [Ex. 60A],> 1000,> 1000
52.3,83.5,0.7,5.1,3.4,"CC(C)OC(=O)Nc1ccc(-c2sc(C3CCC(NC(=O)OC(C)C)CC3)nc2F)c(S(=O)(=O)NC(C)(C)C)c1 (centres unmarked) [Ex. 58, isopropyl ((1r,4r)-4-(5-(2-(N-(tert-butyl)sulfamoyl)-4-((isopropoxycarbonyl)amino)phenyl)-4-fluorothiazol-2-yl)cyclohexyl)carbamate]",100 to 1000,> 1000
–,–,–,–,–,"CC(C)OC(=O)NC1CCC(c2ncc(-c3ccc(NC(=O)OCc4ccccc4F)cc3S(=O)(=O)NC(C)(C)C)s2)CC1 (centres unmarked) [Ex. 40, 2-fluorobenzyl (3-(N-(tert-butyl)sulfamoyl)-4-(2-((1r,4r)-4-((isopropoxycarbonyl)amino)cyclohexyl)thiazol-5-yl)phenyl)carbamate]",≤ 100,> 1000
–,–,–,–,–,"CC(C)OC(=O)N[C@H]1CC[C@H](c2ncc(-c3ccc(NC(=O)OCc4ccccc4F)cc3S(=O)(=O)NC(C)(C)C)s2)CC1 [Ex. 70, trans-isopropyl N-[4-[5-[2-(tert-butylsulfamoyl)-4-[(2-fluorophenyl)methoxycarbonylamino]phenyl]thiazol-2-yl]cyclohexyl]carbamate]",≤ 100,> 1000
